Assay: Solubility of tetra-n-butylammonium bromide in aqueous sodium hydroxide solutions
Format: physicochemical
Details: aqueous NaOH, 20° C.
Description: The organic quaternary ammonium salt is soluble both in water and in the oil layer. Its solubility in an aqueous alkali solution varies with the concentration of the alkali. The solubilities of tetra-n-butylammonium bromide, as an example of organic quaternary ammonium salts, in aqueous sodium hydroxide solutions were measured at 20° C. and the results obtained were as shown in Table 1.

CCCC[N+](CCCC)(CCCC)CCCC.[Br-] [tetra-n-butylammonium bromide]
Solubility of tetra-n-butylammonium bromide (1% by wt.): 27 % by wt. | Solubility of tetra-n-butylammonium bromide (2% by wt.): 11 % by wt. | Solubility of tetra-n-butylammonium bromide (5% by wt.): 2.4 % by wt. | Solubility of tetra-n-butylammonium bromide (10% by wt.): 1.2 % by wt. | Solubility of tetra-n-butylammonium bromide (15% by wt.): 0.07 % by wt.

From patent US4172782A, “Recovery of catalyst” (Sumitomo Chemical Company, Limited, priority 1977, dated 1979)
